Data on one compound can be found in ChEMBL document CHEMBL1926590, “Discovery of a novel class of non-ATP site DFG-out state p38 inhibitors utilizing computationally assisted virtual fragment-based drug design (vFBDD)” (Bioorg Med Chem Lett, 2011).

The nature of data set [1]: Oral bioavailability in Sprague-Dawley rat at 4 mg/kg. It counts as ADME, organism-based. Conditions: in vivo.
The nature of data set [2]: Half life in human hepatocytes. It counts as ADME, cell-based, Liver, Hepatocyte.
Data set [3] is described as follows: Apparent permeability across apical to basolateral side in human Caco2 cells by UPLC analysis. Format: ADME, cell-based. Conditions: Caco-2. A general note: Passage across Caco-2 layers is used to estimate intestinal permeability.
Data set [4] in a line: Apparent permeability across basolateral to apical side in human Caco2 cells by UPLC analysis. Conditions: Caco-2. It counts as ADME, cell-based.

`CN(C)CCN1CCN(C(=O)c2cc(C(C)(C)C)sc2NC(=O)Nc2cccc(Cl)c2Cl)CCC1=O` displayed a bioavailability in data set [1] of 33%. Besides, the half-life in data set [2] amounted to 5.67 h. In addition, the Papp A→B in data set [3] was 0.39 ×10⁻⁶ cm/s. Besides, the Papp B→A in data set [4] amounted to 5.3 ×10⁻⁶ cm/s.

As usually defined, the bioavailability is the share of a dose that reaches the circulation, judged against a reference dose that is usually intravenous. A high value points to much systemic uptake. By half-life is commonly meant the time needed for the level to fall by half in the phase considered. A low value points to fast loss. The term Papp A→B denotes the apparent permeability from the apical to the basolateral side of a cell layer. One may read the Papp B→A as how fast a substance crosses the layer from the basolateral side.
